Results: patent US12251445B2, “Gamma-hydroxybutyrate delivering compounds and processes for making and using them” (Zevra Therapeutics, Inc., priority 2022, dated 2025)

Assay: Pharmacokinetics of GHB in plasma after oral gavage of GHB delivering compounds in rats
Details: vehicle water, mean conjugate/mean comparator
[1] = molar equivalent of 100 mg/kg NaGHB
[2] = dose equivalent to 80 mg/kg NaGHB

Row | Structure (SMILES) | % AUC0-4 hr vs study comparator sodium oxybate [1] | % Cmax vs study comparator sodium oxybate [1] | % AUC0-4 hr vs study comparator sodium oxybate [2] | % Cmax vs study comparator sodium oxybate [2]
1 | O=C1CCCO1 [GBL] | 27% | 70% |  | 
2 | CCOC(=O)OCCCC(=O)O [O-(ethoxycarbonyl)-GHB] |  |  | 54% | 51%
